Tests used:
SK-MEL-5 = assay: panel of 60 human tumor cell lines, growth inhibition (Melanoma); settings: 8K-MEL-5
UO-31 = assay: panel of 60 human tumor cell lines, growth inhibition (Renal Cancer); settings: UO-31
MDA-MB-435 = assay: panel of 60 human tumor cell lines, growth inhibition (Melanoma); settings: MDA-MB-435
MOLT-4 = assay: panel of 60 human tumor cell lines, growth inhibition (Leukemia); settings: MOLT-4
T-47D = assay: panel of 60 human tumor cell lines, growth inhibition (Breast Cancer); settings: T-47D
MCF7 = assay: as above; settings: MCF7
SF-539 = assay: panel of 60 human tumor cell lines, growth inhibition (CNS Cancer); settings: SF-539
SNB-19 = assay: as above; settings: SNB-19
HCC-2998 = assay: panel of 60 human tumor cell lines, growth inhibition (Colon Cancer); settings: HCC-2998
BT-549 = assay: panel of 60 human tumor cell lines, growth inhibition (Breast Cancer); settings: BT-549
NCI-H23 = assay: panel of 60 human tumor cell lines, growth inhibition (Non-Small Cell Lung Cancer)
HOP-92 = assay: as above; settings: HOP-92
RXF 393 = assay: panel of 60 human tumor cell lines, growth inhibition (Renal Cancer); settings: RXF 393
ACHN = assay: as above
NCI-H322M = assay: panel of 60 human tumor cell lines, growth inhibition (Non-Small Cell Lung Cancer)
NCI-H460 = assay: as above; settings: NCI-H460
HCT-15 = assay: panel of 60 human tumor cell lines, growth inhibition (Colon Cancer); settings: HCT-15
SK-OV-3 = assay: panel of 60 human tumor cell lines, growth inhibition (Ovarian Cancer); settings: SK-OV-3
IGROV1 = assay: as above; settings: IGROVI

Compound: C=C1C(=O)O[C@H]2[C@H]1CC/C(COC(=O)NC)=C\CC[C@@]1(C)O[C@@H]21 [JVM 2-57]
- Percent Growth (SK-MEL-5; Log10 Concentration −4.0): −73%
- Percent Growth (SK-MEL-5; Log10 Concentration −5.0): 56%
- Percent Growth (SK-MEL-5; Log10 Concentration −6.0): 97%
- Percent Growth (SK-MEL-5; Log10 Concentration −7.0): 98%
- Percent Growth (SK-MEL-5; Log10 Concentration −8.0): 100%
- GI50 (SK-MEL-5; NCI five dose): 11.1 µM
- TGI (SK-MEL-5; NCI five dose): 2.70E−5
- Percent Growth (UO-31; Log10 Concentration −4.0): −93%
- Percent Growth (UO-31; Log10 Concentration −5.0): 7%
- Percent Growth (UO-31; Log10 Concentration −6.0): 82%
- Percent Growth (UO-31; Log10 Concentration −7.0): 88%
- Percent Growth (UO-31; Log10 Concentration −8.0): 84%
- GI50 (UO-31; NCI five dose): 2.63 µM
- TGI (UO-31; NCI five dose): 1.16E−5
- Percent Growth (MDA-MB-435; Log10 Concentration −4.0): −81%
- Percent Growth (MDA-MB-435; Log10 Concentration −5.0): 32%
- Percent Growth (MDA-MB-435; Log10 Concentration −6.0): 91%
- Percent Growth (MDA-MB-435; Log10 Concentration −7.0): 93%
- Percent Growth (MDA-MB-435; Log10 Concentration −8.0): 99%
- GI50 (MDA-MB-435; NCI five dose): 5.01 µM
- TGI (MDA-MB-435; NCI five dose): 1.92E−5
- Percent Growth (MOLT-4; Log10 Concentration −4.0): −39%
- Percent Growth (MOLT-4; Log10 Concentration −5.0): 8%
- Percent Growth (MOLT-4; Log10 Concentration −6.0): 98%
- Percent Growth (MOLT-4; Log10 Concentration −7.0): 90%
- Percent Growth (MOLT-4; Log10 Concentration −8.0): 97%
- GI50 (MOLT-4; NCI five dose): 3.4 µM
- TGI (MOLT-4; NCI five dose): 1.49E−5
- Percent Growth (T-47D; Log10 Concentration −4.0): −80%
- Percent Growth (T-47D; Log10 Concentration −5.0): −4%
- Percent Growth (T-47D; Log10 Concentration −6.0): 81%
- Percent Growth (T-47D; Log10 Concentration −7.0): 86%
- Percent Growth (T-47D; Log10 Concentration −8.0): 94%
- GI50 (T-47D; NCI five dose): 2.32 µM
- TGI (T-47D; NCI five dose): 9.04E−6
- Percent Growth (MCF7; Log10 Concentration −4.0): −75%
- Percent Growth (MCF7; Log10 Concentration −5.0): 4%
- Percent Growth (MCF7; Log10 Concentration −6.0): 83%
- Percent Growth (MCF7; Log10 Concentration −7.0): 88%
- Percent Growth (MCF7; Log10 Concentration −8.0): 94%
- GI50 (MCF7; NCI five dose): 2.61 µM
- TGI (MCF7; NCI five dose): 1.11E−5
- Percent Growth (SF-539; Log10 Concentration −4.0): −92%
- Percent Growth (SF-539; Log10 Concentration −5.0): 22%
- Percent Growth (SF-539; Log10 Concentration −6.0): 88%
- Percent Growth (SF-539; Log10 Concentration −7.0): 91%
- Percent Growth (SF-539; Log10 Concentration −8.0): 97%
- GI50 (SF-539; NCI five dose): 3.8 µM
- TGI (SF-539; NCI five dose): 1.57E−5
- Percent Growth (SNB-19; Log10 Concentration −4.0): −38%
- Percent Growth (SNB-19; Log10 Concentration −5.0): 74%
- Percent Growth (SNB-19; Log10 Concentration −6.0): 92%
- Percent Growth (SNB-19; Log10 Concentration −7.0): 95%
- Percent Growth (SNB-19; Log10 Concentration −8.0): 94%
- GI50 (SNB-19; NCI five dose): 16.4 µM
- TGI (SNB-19; NCI five dose): 4.59E−5
- Percent Growth (HCC-2998; Log10 Concentration −4.0): −81%
- Percent Growth (HCC-2998; Log10 Concentration −5.0): 65%
- Percent Growth (HCC-2998; Log10 Concentration −6.0): 107%
- Percent Growth (HCC-2998; Log10 Concentration −7.0): 91%
- Percent Growth (HCC-2998; Log10 Concentration −8.0): 94%
- GI50 (HCC-2998; NCI five dose): 12.7 µM
- TGI (HCC-2998; NCI five dose): 2.80E−5
- Percent Growth (BT-549; Log10 Concentration −4.0): −96%
- Percent Growth (BT-549; Log10 Concentration −6.0): 74%
- Percent Growth (BT-549; Log10 Concentration −7.0): 86%
- Percent Growth (BT-549; Log10 Concentration −8.0): 105%
- GI50 (BT-549; NCI five dose): 2.13 µM
- TGI (BT-549; NCI five dose): 9.96E−6
- TGI (NCI-H23; NCI five dose): 2.04E−5
- Percent Growth (NCI-H23; NCI-H 3, Log10 Concentration −4.0): −68%
- Percent Growth (NCI-H23; NCI-H 3, Log10 Concentration −5.0): 30%
- Percent Growth (NCI-H23; NCI-H 3, Log10 Concentration −6.0): 92%
- Percent Growth (NCI-H23; NCI-H 3, Log10 Concentration −7.0): 95%
- Percent Growth (NCI-H23; NCI-H 3, Log10 Concentration −8.0): 94%
- GI50 (NCI-H23; NCI-H 3, NCI five dose): 4.79 µM
- Percent Growth (HOP-92; Log10 Concentration −4.0): −95%
- Percent Growth (HOP-92; Log10 Concentration −5.0): −9%
- Percent Growth (HOP-92; Log10 Concentration −6.0): 83%
- Percent Growth (HOP-92; Log10 Concentration −7.0): 91%
- Percent Growth (HOP-92; Log10 Concentration −8.0): 92%
- GI50 (HOP-92; NCI five dose): 2.26 µM
- TGI (HOP-92; NCI five dose): 7.90E−6
- Percent Growth (RXF 393; Log10 Concentration −4.0): −76%
- Percent Growth (RXF 393; Log10 Concentration −5.0): −2%
- Percent Growth (RXF 393; Log10 Concentration −6.0): 75%
- Percent Growth (RXF 393; Log10 Concentration −7.0): 107%
- Percent Growth (RXF 393; Log10 Concentration −8.0): 99%
- GI50 (RXF 393; NCI five dose): 2.12 µM
- TGI (RXF 393; NCI five dose): 9.35E−6
- Percent Growth (ACHN; Log10 Concentration −4.0): −83%
- Percent Growth (ACHN; Log10 Concentration −5.0): 7%
- Percent Growth (ACHN; Log10 Concentration −6.0): 84%
- Percent Growth (ACHN; Log10 Concentration −7.0): 93%
- Percent Growth (ACHN; Log10 Concentration −8.0): 98%
- GI50 (ACHN; NCI five dose): 2.78 µM
- TGI (ACHN; NCI five dose): 1.19E−5
- Percent Growth (NCI-H322M; Log10 Concentration −4.0): −17%
- Percent Growth (NCI-H322M; Log10 Concentration −5.0): 78%
- Percent Growth (NCI-H322M; Log10 Concentration −6.0): 97%
- Percent Growth (NCI-H322M; Log10 Concentration −7.0): 94%
- Percent Growth (NCI-H322M; Log10 Concentration −8.0): 98%
- GI50 (NCI-H322M; NCI five dose): 19.7 µM
- TGI (NCI-H322M; NCI five dose): 6.62E−5
- Percent Growth (NCI-H460; Log10 Concentration −4.0): −65%
- Percent Growth (NCI-H460; Log10 Concentration −5.0): 78%
- Percent Growth (NCI-H460; Log10 Concentration −6.0): 101%
- Percent Growth (NCI-H460; Log10 Concentration −7.0): 103%
- Percent Growth (NCI-H460; Log10 Concentration −8.0): 103%
- GI50 (NCI-H460; NCI five dose): 15.6 µM
- TGI (NCI-H460; NCI five dose): 3.49E−5
- Percent Growth (HCT-15; Log10 Concentration −4.0): −83%
- Percent Growth (HCT-15; Log10 Concentration −5.0): 4%
- Percent Growth (HCT-15; Log10 Concentration −6.0): 82%
- Percent Growth (HCT-15; Log10 Concentration −7.0): 97%
- Percent Growth (HCT-15; Log10 Concentration −8.0): 98%
- GI50 (HCT-15; NCI five dose): 2.58 µM
- TGI (HCT-15; NCI five dose): 1.12E−5
- Percent Growth (SK-OV-3; Log10 Concentration −4.0): −26%
- Percent Growth (SK-OV-3; Log10 Concentration −5.0): 91%
- Percent Growth (SK-OV-3; Log10 Concentration −6.0): 105%
- Percent Growth (SK-OV-3; Log10 Concentration −7.0): 90%
- Percent Growth (SK-OV-3; Log10 Concentration −8.0): 101%
- GI50 (SK-OV-3; NCI five dose): 22.4 µM
- TGI (SK-OV-3; NCI five dose): 5.96E−5
- Percent Growth (IGROV1; Log10 Concentration −4.0): −57%
- Percent Growth (IGROV1; Log10 Concentration −5.0): 8%
- Percent Growth (IGROV1; Log10 Concentration −6.0): 102%
- Percent Growth (IGROV1; Log10 Concentration −7.0): 101%
- Percent Growth (IGROV1; Log10 Concentration −8.0): 100%
- GI50 (IGROV1; NCI five dose): 3.58 µM
- TGI (IGROV1; NCI five dose): 1.32E−5
